Results from PubChem BioAssay (NCI).
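Following 48 hours of exposure in 96-well plates, responses at five concentrations were used to interpolate endpoints linearly. GI50: concentration for 50% inhibition of growth. TGI: concentration producing complete growth inhibition.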

What was measured:
Assay in all cases: NCI-60 cell line screen, 48 h
MCF7 breast = tested on: MCF7 breast
SN12C renal = tested on: SN12C renal
ACHN renal = tested on: ACHN renal
BT-549 breast = tested on: BT-549 breast
RXF 393 renal = tested on: RXF 393 renal
SK-MEL-5 melanoma = tested on: SK-MEL-5 melanoma
K-562 leukemia = tested on: K-562 leukemia
NCI-H460 lung = tested on: NCI-H460 lung
PC-3 prostate = tested on: PC-3 prostate
HCC-2998 colon = tested on: HCC-2998 colon
DU-145 prostate = tested on: DU-145 prostate
HT29 colon = tested on: HT29 colon
SF-268 CNS = tested on: SF-268 CNS
SF-539 CNS = tested on: SF-539 CNS
OVCAR-4 ovarian = tested on: OVCAR-4 ovarian
HOP-62 NSCLC = tested on: HOP-62 NSCLC
MALME-3M melanoma = tested on: MALME-3M melanoma
MOLT-4 leukemia = tested on: MOLT-4 leukemia
HCT-15 colon = tested on: HCT-15 colon
MDA-MB-435 = tested on: MDA-MB-435
SF-295 CNS = tested on: SF-295 CNS
NCI-H23 lung = tested on: NCI-H23 lung
NCI/ADR-RES ovarian = tested on: NCI/ADR-RES ovarian
UO-31 renal = tested on: UO-31 renal
SR leukemia = tested on: SR leukemia
M14 melanoma = tested on: M14 melanoma
UACC-257 melanoma = tested on: UACC-257 melanoma
HS 578T breast = tested on: HS 578T breast
OVCAR-3 ovarian = tested on: OVCAR-3 ovarian
SW-620 colon = tested on: SW-620 colon
EKVX NSCLC = tested on: EKVX NSCLC
HCT-116 colon = tested on: HCT-116 colon
786-0 renal = tested on: 786-0 renal
OVCAR-8 ovarian = tested on: OVCAR-8 ovarian
T-47D breast = tested on: T-47D breast
SK-MEL-2 melanoma = tested on: SK-MEL-2 melanoma
SNB-19 CNS = tested on: SNB-19 CNS
LOX IMVI melanoma = tested on: LOX IMVI melanoma
NCI-H522 lung = tested on: NCI-H522 lung
HL-60(TB) leukemia = tested on: HL-60(TB) leukemia
HOP-92 NSCLC = tested on: HOP-92 NSCLC
SK-OV-3 ovarian = tested on: SK-OV-3 ovarian
COLO 205 colon = tested on: COLO 205 colon
CCRF-CEM leukemia = tested on: CCRF-CEM leukemia
RPMI-8226 leukemia = tested on: RPMI-8226 leukemia
CAKI-1 renal = tested on: CAKI-1 renal
NCI-H226 lung = tested on: NCI-H226 lung
MDA-MB-231 breast = tested on: MDA-MB-231 breast
OVCAR-5 ovarian = tested on: OVCAR-5 ovarian
KM12 colon = tested on: KM12 colon
IGROV1 ovarian = tested on: IGROV1 ovarian
TK-10 renal = tested on: TK-10 renal
A549 NSCLC = tested on: A549 NSCLC
UACC-62 melanoma = tested on: UACC-62 melanoma
A498 renal = tested on: A498 renal
SK-MEL-28 melanoma = tested on: SK-MEL-28 melanoma
U251 CNS = tested on: U251 CNS

Compound `C/C=C(/C)C(=O)OC1C=C(CO)C(=O)C(OC(=O)C2(C)OC2C)C1C(C)C` (centres undefined) has a GI50 (MCF7 breast) of 1190 nM, a TGI (MCF7 breast) of 4140 nM and a GI50 (SN12C renal) of 1450 nM. The TGI (SN12C renal) was 2990 nM, the GI50 (ACHN renal) was 1480 nM and the TGI (ACHN renal) was 2810 nM. It also gave a GI50 (BT-549 breast) of 2020 nM, a TGI (BT-549 breast) of 4350 nM and a GI50 (RXF 393 renal) of 1770 nM. It also gave a TGI (RXF 393 renal) of 3270 nM, a GI50 (SK-MEL-5 melanoma) of 1560 nM and a TGI (SK-MEL-5 melanoma) of 3040 nM. The GI50 (K-562 leukemia) was 1330 nM, the TGI (K-562 leukemia) was 10800 nM and the GI50 (NCI-H460 lung) was 2930 nM. It also gave a TGI (NCI-H460 lung) of 8270 nM, a GI50 (PC-3 prostate) of 1750 nM and a TGI (PC-3 prostate) of 4500 nM. The GI50 (HCC-2998 colon) was 1740 nM, the TGI (HCC-2998 colon) was 3220 nM and the GI50 (DU-145 prostate) was 1520 nM. For the same compound, the TGI (DU-145 prostate) was 2880 nM, the GI50 (HT29 colon) was 1660 nM and the TGI (HT29 colon) was 3380 nM. The GI50 (SF-268 CNS) was 2460 nM, the TGI (SF-268 CNS) was 6320 nM and the GI50 (SF-539 CNS) was 1860 nM. It also gave a TGI (SF-539 CNS) of 3380 nM, a GI50 (OVCAR-4 ovarian) of 1930 nM and a TGI (OVCAR-4 ovarian) of 3910 nM. The GI50 (HOP-62 NSCLC) was 1960 nM, the TGI (HOP-62 NSCLC) was 4300 nM and the GI50 (MALME-3M melanoma) was 1740 nM. For the same compound, the TGI (MALME-3M melanoma) was 3530 nM, the GI50 (MOLT-4 leukemia) was 1960 nM and the TGI (MOLT-4 leukemia) was 6500 nM. It also gave a GI50 (HCT-15 colon) of 1400 nM, a TGI (HCT-15 colon) of 3090 nM and a GI50 (MDA-MB-435) of 1490 nM. For the same compound, the TGI (MDA-MB-435) was 2880 nM, the GI50 (SF-295 CNS) was 2620 nM and the TGI (SF-295 CNS) was 8160 nM. It also gave a GI50 (NCI-H23 lung) of 2090 nM, a TGI (NCI-H23 lung) of 4880 nM and a GI50 (NCI/ADR-RES ovarian) of 3180 nM. For the same compound, the TGI (NCI/ADR-RES ovarian) was 17400 nM, the GI50 (UO-31 renal) was 1610 nM and the TGI (UO-31 renal) was 2960 nM. It also gave a GI50 (SR leukemia) of 778 nM, a TGI (SR leukemia) of 8200 nM and a GI50 (M14 melanoma) of 1580 nM. The TGI (M14 melanoma) was 3490 nM, the GI50 (UACC-257 melanoma) was 1370 nM and the TGI (UACC-257 melanoma) was 2750 nM. The GI50 (HS 578T breast) was 3680 nM, the TGI (HS 578T breast) was 22900 nM and the GI50 (OVCAR-3 ovarian) was 1170 nM. It also gave a TGI (OVCAR-3 ovarian) of 2450 nM, a GI50 (SW-620 colon) of 1980 nM and a TGI (SW-620 colon) of 4160 nM. It also gave a GI50 (EKVX NSCLC) of 2750 nM, a TGI (EKVX NSCLC) of 7630 nM and a GI50 (HCT-116 colon) of 1130 nM. The TGI (HCT-116 colon) was 2480 nM, the GI50 (786-0 renal) was 1790 nM and the TGI (786-0 renal) was 3240 nM. For the same compound, the GI50 (OVCAR-8 ovarian) was 2070 nM, the TGI (OVCAR-8 ovarian) was 5540 nM and the GI50 (T-47D breast) was 1270 nM. The TGI (T-47D breast) was 2790 nM, the GI50 (SK-MEL-2 melanoma) was 1850 nM and the TGI (SK-MEL-2 melanoma) was 3590 nM. For the same compound, the GI50 (SNB-19 CNS) was 2330 nM, the TGI (SNB-19 CNS) was 5870 nM and the GI50 (LOX IMVI melanoma) was 1710 nM. The TGI (LOX IMVI melanoma) was 3300 nM, the GI50 (NCI-H522 lung) was 1070 nM and the TGI (NCI-H522 lung) was 2540 nM. The GI50 (HL-60(TB) leukemia) was 1160 nM, the TGI (HL-60(TB) leukemia) was 6450 nM and the GI50 (HOP-92 NSCLC) was 1650 nM. For the same compound, the TGI (HOP-92 NSCLC) was 3330 nM, the GI50 (SK-OV-3 ovarian) was 4450 nM and the TGI (SK-OV-3 ovarian) was 14300 nM. The GI50 (COLO 205 colon) was 1850 nM, the TGI (COLO 205 colon) was 3430 nM and the GI50 (CCRF-CEM leukemia) was 653 nM. It also gave a TGI (CCRF-CEM leukemia) of 5250 nM, a GI50 (RPMI-8226 leukemia) of 1500 nM and a TGI (RPMI-8226 leukemia) of 5170 nM. The GI50 (CAKI-1 renal) was 1810 nM, the TGI (CAKI-1 renal) was 3200 nM and the GI50 (NCI-H226 lung) was 3550 nM. For the same compound, the TGI (NCI-H226 lung) was 13700 nM, the GI50 (MDA-MB-231 breast) was 1720 nM and the TGI (MDA-MB-231 breast) was 3790 nM. The GI50 (OVCAR-5 ovarian) was 1930 nM, the TGI (OVCAR-5 ovarian) was 3740 nM and the GI50 (KM12 colon) was 1830 nM. It also gave a TGI (KM12 colon) of 3670 nM, a GI50 (IGROV1 ovarian) of 1990 nM and a TGI (IGROV1 ovarian) of 4550 nM. The GI50 (TK-10 renal) was 1880 nM, the TGI (TK-10 renal) was 3360 nM and the GI50 (A549 NSCLC) was 2600 nM. For the same compound, the TGI (A549 NSCLC) was 7700 nM, the GI50 (UACC-62 melanoma) was 1330 nM and the TGI (UACC-62 melanoma) was 2680 nM. For the same compound, the GI50 (A498 renal) was 1740 nM, the TGI (A498 renal) was 3900 nM and the GI50 (SK-MEL-28 melanoma) was 1780 nM. For the same compound, the TGI (SK-MEL-28 melanoma) was 3330 nM, the GI50 (U251 CNS) was 1520 nM and the TGI (U251 CNS) was 2850 nM.
